“Also recorded” adds a separate entry of the source.
Legend:
[1] = test system: KPr^p53A cells; test: In vitro co-culture of dormant tumor cells with PMN (count of GFP+ cells); type: cell-based, mouse; details: KPr^p53A
Method: (§1) The KPr cell line (16) was maintained in RPMI 1640 medium (Corning) and 10% FBS (Gibco). Treatment of KPr cells with 250 nM 4-hydroxytamoxifen (4-OHT, Sigma-Aldrich) induced p53 expression. p53-induced cells (KPr^p53) were stained with CellTrace dye for 20 min at 37° C. according to the manufacturer's instructions (Life Technologies) and seeded at 8500 cells/cm^2 in culture in a T175 tissue culture-treated flask (Gibco). After 7 days, cells were detached and sorted based on the CellTrace dye intensity as proliferating (KPr^p53P, with lower CellTrace) and arrested cells (KPr^p53A, with higher-intensity CellTrace; see FIG. 1A for representative image). LL2 cells were seeded at 1000 cells/cm2 and treated for 3 days with 2.5 μM cisplatin (Selleckchem). After that, cells were stained with CellTrace and sorted as described above. OVCAR3 cell senescence was induced by treating 5×10^4 cells/cm2 with 0.5 μM cisplatin for 72 hours. After that time, cells were stained with CellTrace and sorted. A549 senescence was induced by 72-hour treatment with 4 μM cisplatin and cells were sorted after staining with CellTrace. Time points for sorting were chosen as the best to observe separation between arrested and proliferating cells. Cells were sorted on Astrios (Beckman Coulter) or Melody (Becton Dickinson) fluorescence-activated cell sorters.
(§2) Arrested tumor cells were plated at 100 cells/cm^2 in a 48-well tissue culture-treated plate (Costar) for coculture experiments. After 24 hours, PMN-MDSC or PMN were added at indicated ratios. Cocultures were maintained for 48 hours in RPMI 1640+10% FBS in the presence of mouse recombinant GM-CSF (10 ng/ml; Rocky Hill) to ensure neutrophil viability. All control conditions were in the presence of media with GM-CSF. All indicated supplements (NE, S100A8/A9, BGJ398, ICI 118-551, IL-2, MPO inhibitor, LPS, lipids, PMA, and thapsigargin 1 μM) were added to culture at the same time as PMN and maintained for 48 hours. After that, media were removed and replaced by fresh media without GM-CSF. After 1 week, GFP^+ cells in wells were counted via an inverted microscope. When lipid extracts were used, lipids were added to dormant cells in culture at 1 to 0.05 or 0.01 nmol as indicated in each experiment.

[2] = test system: LL2^cisA and AT-3^DoxA cells; test: In vitro co-culture of chemotherapy-arrested mouse tumor cells with PMN; type: cell-based; details: LLC^cisA
Method: as §1, §2

[3] = test system: A549^cisA and OVCAR3^cisA cells; test: In vitro co-culture of chemotherapy-arrested human tumor cells with human PMN; type: cell-based
Method: as §1, §2

[4] = test system: LL2^cisA cells; test: In vivo stress induction, C57BL/6 mice injected with LL2^cisA cells; set-up: species or system mouse
From the text: A total of 2.5×10^4 KPr^p53A cells were intravenously injected to NOD/SCID mice. Beginning 3 weeks after injection, mice were imaged weekly. Luciferin (PerkinElmer) was intraperitoneally injected in mice before imaging according to the manufacturer's instruction. Mice were imaged with IVIS Spectrum In Vivo Imaging System (IVIS, PerkinElmer) to detect luminescent signal coming from growing cancer cells. Mice were put under anesthesia in the induction chamber with isoflurane vaporizer set to 2.5%, at a flow rate of ˜1.5 liters/min. Mice were then transferred in the IVIS imaging stage nose cone inside the IVIS manifold (IVIS manifold nose cones flow set to ˜0.25 LPM). Animals were monitored by video during imaging. Once the images of luciferase/luciferin activity were acquired, the anesthesia was turned off and the animals were returned to their cages. […] Analysis and quantification were performed with IVIS imaging system Living Image Software 4.7.4 (PerkinElmer). […] When signal was detected, mice were sacrificed, and bioluminescent images of the harvested lung were taken. […] If no bioluminescence was detected in lungs after 80 days from last PMN injection, experiments were terminated, and lung tissue were collected. […] Bioluminescence was not detected in any LL2^CisA-injected mice at 3 weeks after injection. Mice were treated with PMN or PMN-MDSC and analyzed as described above. […]

[5] = test system: KPr, KPr^p53P and KPr^p53A^react cells; test: Cell proliferation (luciferase activity); type: cell-based, mouse; details: 5 or 10 μM
Method: Two thousand cells per well were seeded in 96-well clear bottom plate in triplicate (Lonza). Sixteen hours after seeding, NE (Sigma-Aldrich) at 0.5 to 5 μM final concentration or BGJ398 at 0.75 μM final concentration (Selleckchem) was added to culture. To test the effect of BGJ398t on KPr^p53A^React cells, escalating doses ranging from 0 to 10 μM final concentrations were used. To detect luciferase activity (proportional to number of cells in culture), Luciferin (PerkinElmer) was added 1:200 from stock according to the manufacturer's instructions and luminescence was measured with a Victor spectrophotometer (PerkinElmer).

[6] = test system: patients with prostate cancer; details: cited from earlier work

Structure (SMILES)	reactivation of KPr^p53A cells by PMN treated with S100A8/A9 or NE, effect of FGFR blockade [1]	reactivation of LLC^cisA cells by PMN treated with S100A8/A9 or NE, effect of FGFR blockade [2]	reactivation of A549^cisA cells by PMN treated with S100A8/A9 or NE, effect of FGFR blockade ([3]; A549^cisA)	reactivation of OVCAR3^cisA cells by PMN treated with S100A8/A9 or NE, effect of FGFR blockade ([3]; OVCAR3^cisA)	mice with lung tumor lesions despite exposure to stress ([4]; 30 mg/kg, 3 weeks of stress)	proliferation of KPr^p53A^react cells [5]	proliferation of KPr^p53P cells [5]	proliferation of parental KPr cells [5]	progression-free survival ([6]; patients with prostate cancer, compared to placebo)	disease-free survival ([6]; randomized phase III trial)	overall survival ([6]; randomized phase III trial)	frequency of tumor lesions in stressed LL2^cisA cell-bearing mice ([4]; 0.15 mg/ml in drinking water during stress induction)
CCN1CCN(c2ccc(Nc3cc(N(C)C(=O)Nc4c(Cl)c(OC)cc(OC)c4Cl)ncn3)cc2)CC1 [BGJ398, infigratinib]	abrogated their reactivation by PMN treated with S100A8/A9 or NE	abrogated their reactivation by PMN treated with S100A8/A9 or NE	abrogated their reactivation by PMN treated with S100A8/A9 or NE	abrogated their reactivation by PMN treated with S100A8/A9 or NE	0 of 4	abrogated cell proliferation	did not affect proliferation of tumor cells	did not affect proliferation of tumor cells	–	–	–	–
COc1cccc2c1c(O)c(C(=O)N(C)c1ccc(C(F)(F)F)cc1)c(=O)n2C [tasquinimod]	–	–	–	–	–	–	–	–	prolonged progression-free survival compared to placebo	increased disease-free survival	did not affect overall survival	significantly (P=0.007) reduced frequency of tumor lesions; also recorded: reverting the stress-induced reactivation of dormant tumor cells in mice

Reference: patent publication US20230151434A1, “REAWAKENING OF DORMANT TUMOR CELLS BY MODIFIED LIPIDS DERIVED FROM STRESS ACTIVATED NEUTROPHILS” (The Wistar Institute of Anatomy and Biology, priority 2020, published 2023)
